PubChem BioAssay (NCI)
Several values for one entry are separate records, joined by “and”; a condition that tells them apart may be missing. Equal values may be shown once.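 Five concentrations, 48 hours, 96-well plates. At the GI50, growth is halved. Definition used: TGI = concentration required for complete inhibition of growth.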

Tested on: BT-549 breast
Test: growth of human tumour cells (NCI), 48 h

Row | SMILES | TGI | GI50
1 | O=C(CCCn1ccnc1[N+](=O)[O-])NCCn1cncc1[N+](=O)[O-] | > 100 µM | –
2 | Cn1cc(C2=C(c3ccc4ccccc4c3)C(=O)NC2=O)c2ccccc21 | > 25 µM | > 25 µM
3 | O=C(OCc1ccc2cccc(O)c2n1)N1CCN(C(=O)c2cc3cc(F)ccc3[nH]2)CC1 | 2.21 µM | 1 µM
4 | C[As](C)SC1OC(CO)C(O)C1O (centres undefined) | 3.21 µM | 0.628 µM
5 | OCCN1CN(CCO)CN(c2nc(N3CN(CCO)CN(CCO)C3)nc(N3CN(CCO)CN(CCO)C3)n2)C1 | 1.55 ng/mL | –
6 | Cn1c(=O)c2c(nc(Nc3cc(=O)[nH]c(=O)[nH]3)n2Cc2ccccc2)n(C)c1=O | > 100 µM | 69.4 µM
7 | COc1ccc2c(c1)CCC1C2CC[C@@]2(C)C1CC1=CC(COC(C)=O)C3C(=O)c4ccccc4C(=O)C3C12 (some centres undefined) | > 100 µM | > 100 µM
8 | C=C(F)C(=O)N1CCN(c2nc(OC[C@@H]3CCCN3C)nc3c2CCN(c2cccc4cccc(Cl)c24)C3)C[C@@H]1CC#N | 4.57 µM | 2.19 µM
9 | Cc1c2cccnc2c(C)c2c1c1cc(CO)ccc1n2C | 20.1 µM | 3.42 µM
10 | CC/C(=C(/c1ccc(OCCN(C)C)cc1)c1ccc(OC(=O)CCCCC(=O)c2c(C)[nH]c(/C=C3\N=C(c4ccc[nH]4)C=C3OC)c2C)cc1)c1ccccc1 | 17 µM | 3.57 µM
11 | CC[C@]12C=CCN3CC[C@@]4(c5ccc(OC)cc5N(C)[C@H]4[C@@](O)(C(=O)OC)[C@@H]1OC(=O)CCC[P+](c1ccccc1)(c1ccccc1)c1ccccc1)[C@@H]32 | 1.86 µM and 1.6 µM | 0.284 µM and 0.234 µM
12 | CC(=O)OC1Oc2ccccc2-c2oc(=O)c(-c3cc(=O)oc4cc(O)ccc34)cc21 (centres undefined) | 41.4 µM | 15.3 µM
13 | Ic1ccc(Nc2nc3nonc3nc2Nc2ccc(I)cc2)cc1 | 1.36 µM | 0.301 µM
14 | CC(C)(C)C(=O)OCOP(=O)(OCOC(=O)C(C)(C)C)C1CCCN(O)C1=O (centres undefined) | 1.26 µM | 0.313 µM
15 | CC(SC(C)C(=O)N/N=C/c1cccc(Cl)c1)C(=O)N/N=C\c1cccc(Cl)c1 (centres undefined) | 41.6 µM | 18.2 µM
16 | CCOC(=O)/C=C/C(C(=O)/C=C/c1ccc(OC2CCCCO2)c(OC)c1)=C(O)\C=C\c1ccc(OC2CCCCO2)c(OC)c1 (centres undefined) | 28.4 µM | 5.18 µM
17 | Cc1ccc(Cl)cc1Nc1nc(C(F)(F)F)ccc1C(=O)N1CCN(c2ccc(F)cc2)CC1 | 26.3 µM | 12.8 µM
18 | CCCCc1c(OC)cc(O)c2c1C(=O)c1[nH]c(C(=O)O)c(O)c(=O)c1C2=O | 52.8 µM | –
19 | O=C(Nc1ccc(OS(=O)(=O)c2ccccc2)cc1)C12CC3CC(CC(C3)C1)C2 | > 100 µM | 3.24 µM
20 | CCN1CCN(c2ccc(Nc3cc(N(C)C(=O)Nc4c(Cl)c(OC)cc(OC)c4Cl)ncn3)cc2)CC1 | 21.1 µM | 1.04 µM
21 | CC(C)c1ccc(Nc2ccc3c(OCCCN4CCN(C)CC4)cccc3n2)cc1 | 28.7 µM | 12.3 µM
22 | COc1ccc(N(C)c2ncnc3occ(C)c23)cc1 | > 62.4 µM | < 0.0244 µM
23 | COc1ccc2c(c1)C(C)Cc1c(Cl)ncnc1N2C (centres undefined) | 18.4 µM | 0.433 µM
24 | COCCOc1cc(F)c2c(Nc3ccc(NC(=O)Cn4cc(C(C)C)nn4)cc3)ncnc2c1 | > 100 µM | 33.6 µM
25 | C#Cc1cccc(Nc2ncnc3cc(OC)c(OCCCCCCC(=O)NO)cc23)c1 | 5.69 µM | 0.783 µM
26 | Cc1nnc(S(=O)(=O)c2ccc(N=Nc3c(N)nc(N)nc3N)cc2)s1 | > 100 µM | –
27 | Clc1ccc2c(NCCCNc3nccc(Nc4ccc(Br)cc4)n3)ccnc2c1 | 3.4 µM | 1.68 µM
28 | NC(=NCCCOc1ccc(Cl)cc1)Nc1ccc(C(F)(F)F)cc1 | 6.31 µM | 2.32 µM
29 | C=CC1CC12C(=O)C1OC2(C)C2C(=O)c3cc4ccccc4cc3C(=O)C12 (centres undefined) | 62.6 µM | 25 µM

Tested on: HCC-2998 colon
Test: growth of human tumour cells (NCI), 48 h

Row | SMILES | GI50 | TGI
30 | Cn1cc(C2=C(c3ccc4ccccc4c3)C(=O)NC2=O)c2ccccc21 | > 25 µM | > 25 µM
31 | O=C(OCc1ccc2cccc(O)c2n1)N1CCN(C(=O)c2cc3cc(F)ccc3[nH]2)CC1 | 1.69 µM | 3.26 µM
32 | CCCCCCCCCC/C=C/CC(=O)SCCNC(=O)CCNC(=O)[C@@H](O)C(C)(C)COP(=O)(O)OP(=O)(O)OCC1OC(n2cnc3c(N)ncnc32)C(O)C1OP(=O)(O)O (some centres undefined) | – | > 10 µM
33 | Cn1c(=O)c2c(nc(Nc3cc(=O)[nH]c(=O)[nH]3)n2Cc2ccccc2)n(C)c1=O | > 100 µM | > 100 µM
34 | COc1ccc2c(c1)CCC1C2CC[C@@]2(C)C1CC1=CC(COC(C)=O)C3C(=O)c4ccccc4C(=O)C3C12 (some centres undefined) | > 100 µM | > 100 µM
35 | C=C(F)C(=O)N1CCN(c2nc(OC[C@@H]3CCCN3C)nc3c2CCN(c2cccc4cccc(Cl)c24)C3)C[C@@H]1CC#N | 1.2 µM | 2.66 µM
36 | Cc1c2cccnc2c(C)c2c1c1cc(CO)ccc1n2C | 3.38 µM | 13.9 µM
37 | CC/C(=C(/c1ccc(OCCN(C)C)cc1)c1ccc(OC(=O)CCCCC(=O)c2c(C)[nH]c(/C=C3\N=C(c4ccc[nH]4)C=C3OC)c2C)cc1)c1ccccc1 | 13.2 µM | 26.7 µM
38 | CC[C@]12C=CCN3CC[C@@]4(c5ccc(OC)cc5N(C)[C@H]4[C@@](O)(C(=O)OC)[C@@H]1OC(=O)CCC[P+](c1ccccc1)(c1ccccc1)c1ccccc1)[C@@H]32 | 0.449 µM and 0.425 µM | 2.67 µM and 1.64 µM
39 | Ic1ccc(Nc2nc3nonc3nc2Nc2ccc(I)cc2)cc1 | 0.326 µM | > 100 µM
40 | CC(C)(C)C(=O)OCOP(=O)(OCOC(=O)C(C)(C)C)C1CCCN(O)C1=O (centres undefined) | 0.446 µM | 5.59 µM
41 | CC(SC(C)C(=O)N/N=C/c1cccc(Cl)c1)C(=O)N/N=C\c1cccc(Cl)c1 (centres undefined) | 8 µM | 75.8 µM
42 | CCOC(=O)/C=C/C(C(=O)/C=C/c1ccc(OC2CCCCO2)c(OC)c1)=C(O)\C=C\c1ccc(OC2CCCCO2)c(OC)c1 (centres undefined) | 9.53 µM | 21.6 µM
43 | Cc1ccc(Cl)cc1Nc1nc(C(F)(F)F)ccc1C(=O)N1CCN(c2ccc(F)cc2)CC1 | 12.7 µM | 26 µM
44 | COc1ccc(OC)c(NC(=O)C(=O)NNC(=O)c2sc(NNC(C)=O)nc2C)c1 | – | > 100 µM
45 | CCCCc1c(OC)cc(O)c2c1C(=O)c1[nH]c(C(=O)O)c(O)c(=O)c1C2=O | – | > 100 µM
46 | O=C(Nc1ccc(OS(=O)(=O)c2ccccc2)cc1)C12CC3CC(CC(C3)C1)C2 | 5.48 µM | > 100 µM
47 | CCN1CCN(c2ccc(Nc3cc(N(C)C(=O)Nc4c(Cl)c(OC)cc(OC)c4Cl)ncn3)cc2)CC1 | 8.04 µM | 32.5 µM
48 | CC(C)c1ccc(Nc2ccc3c(OCCCN4CCN(C)CC4)cccc3n2)cc1 | 1.77 µM | 3.35 µM
49 | COc1ccc(N(C)c2ncnc3occ(C)c23)cc1 | < 0.01 µM | 0.0463 µM
50 | COC(=O)c1cc2c(cc1O)[C@@H](NC(C)=O)CCc1cc(OC)c(OC)c(OC)c1-2 | 0.0355 µM | –
51 | COc1ccc2c(c1)C(C)Cc1c(Cl)ncnc1N2C (centres undefined) | 0.402 µM | 14.3 µM
52 | COCCOc1cc(F)c2c(Nc3ccc(NC(=O)Cn4cc(C(C)C)nn4)cc3)ncnc2c1 | > 100 µM | > 100 µM
53 | C#Cc1cccc(Nc2ncnc3cc(OC)c(OCCCCCCC(=O)NO)cc23)c1 | 0.217 µM | 1.34 µM
54 | O=C(c1ccccc1)c1cc(Cl)ccc1OCCCCN1CCN(CCCCOc2ccc(Cl)cc2C(=O)c2ccccc2)CC1 | 2.13 µM | 4.05 µM
55 | Clc1ccc2c(NCCCNc3nccc(Nc4ccc(Br)cc4)n3)ccnc2c1 | 1.5 µM | 2.93 µM
56 | NC(=NCCCOc1ccc(Cl)cc1)Nc1ccc(C(F)(F)F)cc1 | 1.2 µM | 2.64 µM
57 | C=CC1CC12C(=O)C1OC2(C)C2C(=O)c3cc4ccccc4cc3C(=O)C12 (centres undefined) | 24.6 µM | > 100 µM

Tested on: HCT-116 colon
Test: growth of human tumour cells (NCI), 48 h

Row | SMILES | TGI | GI50
58 | O=C(CCCn1ccnc1[N+](=O)[O-])NCCn1cncc1[N+](=O)[O-] | > 100 µM | –
59 | Cn1cc(C2=C(c3ccc4ccccc4c3)C(=O)NC2=O)c2ccccc21 | > 25 µM | 15.6 µM
